Measured values: PubChem BioAssay AID1963983 (Molecular Pharmacology Branch, DTP, NCI, 2024)
Where “and” joins values, the source holds several entries; their conditions need not be identical. Identical values can stand only once.

Test system: 186277-243-T-J2-PDC multi-cell spheroid viability
Assay: Anticancer human tumor 186277-243-T-J2-PDC patient-derived colon adenocarcinoma cell line growth inhibition [PI3K]
Conditions: for viability, T/C: stronger effect = lower value
Summary of the method: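 Tumor cells grown as multi-cell spheroids with HUVEC endothelial cells and MSC fibroblast-like stroma were treated with targeted agents combined with inavolisib, alpelisib, duvelisib or copanlisib. Doses fell in half-log steps from near clinical Cmax, else from 10 microM. Viability was measured.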

[1] = curve of first compound, second compound 0.0316 µM
[2] = curve of first compound, second compound 0.1 µM
[3] = curve of first compound, second compound 0.316 µM
[4] = curve of first compound, second compound 1 µM
[5] = curve of first compound, second compound 3.16 µM
[6] = curve of first compound, second compound 10 µM
[7] = second compound 0.0316 µM, first compound 0.0316 µM
[8] = second compound 0.0316 µM, first compound 0.1 µM
[9] = second compound 0.1 µM, first compound 0.0316 µM
[10] = second compound 0.1 µM, first compound 0.1 µM
[11] = second compound 0.316 µM, first compound 0.0316 µM
[12] = second compound 0.316 µM, first compound 0.1 µM
[13] = second compound 1 µM, first compound 0.0316 µM
[14] = second compound 1 µM, first compound 0.1 µM
[15] = second compound 3.16 µM, first compound 0.0316 µM
[16] = second compound 3.16 µM, first compound 0.1 µM
[17] = second compound 10 µM, first compound 0.0316 µM
[18] = second compound 10 µM, first compound 0.1 µM
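Note: spheroids exposed to compounds for seven days before viability reading.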
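Throughout, for viability, T/C: 100% = DMSO vehicle control viability.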

Q: What does the source list for `C#Cc1c(F)ccc2cc(O)cc(-c3ncc4c(N5CC6CCC(C5)N6)nc(OCC56CCCN5CC(F)C6)nc4c3F)c12` (stereo unspecified) + Cc1nc(NC(=O)N2CCCC2C(N)=O)sc1-c1ccnc(C(C)(C)C(F)(F)F)c1?
A: IC50 [1]: 74.4 nM; IC50 [2]: 46.8 nM; IC50 [3]: < 31.6 nM; IC50 [4]: < 31.6 nM; IC50 [5]: < 31.6 nM; IC50 [6]: < 31.6 nM; viability, T/C [7]: 84.8%; viability, T/C [8]: 37.5%; viability, T/C (second compound 0.0316 µM, first compound 0.316 µM): 20%; viability, T/C (second compound 0.0316 µM, first compound 1 µM): 13.5%; viability, T/C (second compound 0.0316 µM, first compound 3.16 µM): 10.9%; viability, T/C (second compound 0.0316 µM, first compound 10 µM): 9.63%; viability, T/C [9]: 60.6%; viability, T/C [10]: 29.4%; viability, T/C (second compound 0.1 µM, first compound 0.316 µM): 15.1%; viability, T/C (second compound 0.1 µM, first compound 1 µM): 11.4%; viability, T/C (second compound 0.1 µM, first compound 3.16 µM): 8.35%; viability, T/C (second compound 0.1 µM, first compound 10 µM): 7.01%; viability, T/C [11]: 30.4%; viability, T/C [12]: 15.5%; viability, T/C (second compound 0.316 µM, first compound 0.316 µM): 7.34%; viability, T/C (second compound 0.316 µM, first compound 1 µM): 12.6%; viability, T/C (second compound 0.316 µM, first compound 3.16 µM): 6.32%; viability, T/C (second compound 0.316 µM, first compound 10 µM): 6.56%; viability, T/C [13]: 17.2%; viability, T/C [14]: 9.55%; viability, T/C (second compound 1 µM, first compound 0.316 µM): 10.3%; viability, T/C (second compound 1 µM, first compound 1 µM): 6.06%; viability, T/C (second compound 1 µM, first compound 3.16 µM): 4.61%; viability, T/C (second compound 1 µM, first compound 10 µM): 1.79%; viability, T/C [15]: 12.9%; viability, T/C [16]: 5.57%; viability, T/C (second compound 3.16 µM, first compound 0.316 µM): 3.63%; viability, T/C (second compound 3.16 µM, first compound 1 µM): 4.54%; viability, T/C (second compound 3.16 µM, first compound 3.16 µM): 3.29%; viability, T/C (second compound 3.16 µM, first compound 10 µM): 1.25%; viability, T/C [17]: 3.63%; viability, T/C [18]: 3.77%; viability, T/C (second compound 10 µM, first compound 0.316 µM): 2.79%; viability, T/C (second compound 10 µM, first compound 1 µM): 2%; viability, T/C (second compound 10 µM, first compound 3.16 µM): 0.83%; viability, T/C (second compound 10 µM, first compound 10 µM): 0.22%

Q: What does the source list for `CNC(=O)c1ccc(N2C(=S)N(c3ccc(C#N)c(C(F)(F)F)c3)C(=O)C2(C)C)cc1F`?
A: viability, T/C (compound 0.0316 µM): 100% [middle of 4 runs]; viability, T/C (compound 0.1 µM): 93.1% [middle of 4 runs]; viability, T/C (compound 0.316 µM): 100% [middle of 4 runs]; viability, T/C (compound 1 µM): 93% [middle of 4 runs]; viability, T/C (compound 3.16 µM): 101% and 104% (2×) and 94.4%; viability, T/C (compound 10 µM): 104% [middle of 4 runs]; IC50 (curve of compound): > 10000 nM

Q: Which results are given for `CC(=O)c1c(C)c2cnc(Nc3ccc(N4CCNCC4)cn3)nc2n(C2CCCC2)c1=O` + Cc1nc(NC(=O)N2CCCC2C(N)=O)sc1-c1ccnc(C(C)(C)C(F)(F)F)c1?
A: IC50 [1]: > 100 nM; IC50 [2]: > 100 nM; IC50 [3]: > 100 nM; IC50 [4]: > 100 nM; IC50 [5]: 19 nM; IC50 [6]: < 0.316 nM; viability, T/C (second compound 0.0316 µM, first compound 0.000316 µM): 96.5%; viability, T/C (second compound 0.0316 µM, first compound 0.001 µM): 95%; viability, T/C (second compound 0.0316 µM, first compound 0.00316 µM): 96%; viability, T/C (second compound 0.0316 µM, first compound 0.01 µM): 114%; viability, T/C [7]: 123%; viability, T/C [8]: 138%; viability, T/C (second compound 0.1 µM, first compound 0.000316 µM): 97.7%; viability, T/C (second compound 0.1 µM, first compound 0.001 µM): 106%; viability, T/C (second compound 0.1 µM, first compound 0.00316 µM): 104%; viability, T/C (second compound 0.1 µM, first compound 0.01 µM): 109%; viability, T/C [9]: 136%; viability, T/C [10]: 135%; viability, T/C (second compound 0.316 µM, first compound 0.000316 µM): 101%; viability, T/C (second compound 0.316 µM, first compound 0.001 µM): 113%; viability, T/C (second compound 0.316 µM, first compound 0.00316 µM): 109%; viability, T/C (second compound 0.316 µM, first compound 0.01 µM): 101%; viability, T/C [11]: 124%; viability, T/C [12]: 126%; viability, T/C (second compound 1 µM, first compound 0.000316 µM): 104%; viability, T/C (second compound 1 µM, first compound 0.001 µM): 102%; viability, T/C (second compound 1 µM, first compound 0.00316 µM): 99.5%; viability, T/C (second compound 1 µM, first compound 0.01 µM): 107%; viability, T/C [13]: 94.3%; viability, T/C [14]: 83.6%; viability, T/C (second compound 3.16 µM, first compound 0.000316 µM): 58.7%; viability, T/C (second compound 3.16 µM, first compound 0.001 µM): 53.6%; viability, T/C (second compound 3.16 µM, first compound 0.00316 µM): 59.2%; viability, T/C (second compound 3.16 µM, first compound 0.01 µM): 53.3%; viability, T/C [15]: 46.1%; viability, T/C [16]: 37.4%; viability, T/C (second compound 10 µM, first compound 0.000316 µM): 20.9%; viability, T/C (second compound 10 µM, first compound 0.001 µM): 12.4%; viability, T/C (second compound 10 µM, first compound 0.00316 µM): 13.7%; viability, T/C (second compound 10 µM, first compound 0.01 µM): 11.6%; viability, T/C [17]: 15.4%; viability, T/C [18]: 10.5%
